Reference: PubChem BioAssay AID624167 (Sanford-Burnham Center for Chemical Genomics, 2012)
Activity calls are given as the source filed them.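 How the source made its calls: active means mean IC50 for reducing PEG3 promoter reporter signal at or below a set limit, with IC50 above the limit in both counter screens; inactive means the rest, including counter screen hits.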

How the values were obtained:
[1] = inhibition of PEG-3 promoter-driven reporter – cell-based, HeLa, luciferase, CREF/GAPDH counter-screen panel, dose response (AID 624167); details: CREF/GAPDH counter-screens; GAPDH; mean of runs
GAPDH = experiment: as above; details: CREF/GAPDH counter-screens
PEG-3 [2] = target: PEG-3 (UniProt Q6IN02); experiment: as above; details: HeLa PEG-Prom luciferase reporter, overnight, CREF/GAPDH counter-screens, mean of runs
PEG-3 (UniProt Q6IN02), sequence (Q6IN02 whole entry, looked up): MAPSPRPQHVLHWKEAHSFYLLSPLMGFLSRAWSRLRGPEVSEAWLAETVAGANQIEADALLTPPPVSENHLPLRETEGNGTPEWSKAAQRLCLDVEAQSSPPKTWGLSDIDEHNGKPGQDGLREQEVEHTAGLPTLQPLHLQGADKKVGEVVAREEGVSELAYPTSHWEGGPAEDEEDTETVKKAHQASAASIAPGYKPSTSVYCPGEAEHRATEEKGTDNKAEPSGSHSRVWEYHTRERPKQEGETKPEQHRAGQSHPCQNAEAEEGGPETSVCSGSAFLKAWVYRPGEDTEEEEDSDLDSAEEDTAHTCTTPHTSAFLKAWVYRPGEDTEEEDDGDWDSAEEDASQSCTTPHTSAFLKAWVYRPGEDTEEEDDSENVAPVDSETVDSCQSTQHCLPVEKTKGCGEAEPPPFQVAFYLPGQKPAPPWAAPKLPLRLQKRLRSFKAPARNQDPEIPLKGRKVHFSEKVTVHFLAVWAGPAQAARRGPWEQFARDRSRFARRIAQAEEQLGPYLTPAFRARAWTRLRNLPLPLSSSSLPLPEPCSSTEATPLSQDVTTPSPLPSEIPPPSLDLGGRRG

PEG-3 [3] = experiment: as above; details: HeLa PEG-Prom luciferase reporter, overnight, CREF/GAPDH counter-screens
Rat fibroblasts (CREF) = experiment: as above; details: CREF/GAPDH counter-screens
[4] = run 1, dose range 1, individual replicate IC50 per panel
[5] = run 2, dose range 1, individual replicate IC50 per panel

Structure (SMILES) | IC50 [1] | IC50 (PEG-3 [2]) | IC50 (GAPDH; [4]) [µM] | IC50 (GAPDH; [5]) [µM] | IC50 (PEG-3 [3]; [4]) [µM] | IC50 (PEG-3 [3]; [5]) [µM] | IC50 (Rat fibroblasts (CREF); mean of runs) | IC50 (Rat fibroblasts (CREF); [4]) [µM] | IC50 (Rat fibroblasts (CREF); [5]) [µM]
CCCCCCCNC(=O)C1(CC2CC(c3cccc(Br)c3)=NO2)CCNCC1 (centres undefined) | 15.4 µM | 7.4 µM | 13.5 | 17.3 | 8.05 | 6.76 | 16.5 µM | 16.1 | 16.9
Cc1ccc(OCC(=O)c2cc(C)n(-c3ccccc3)c2C)c([N+](=O)[O-])n1 | 5.5 µM | inactive | 2.62 | 8.38 | 0.686 | > 100 | > 100 µM (inactive) | > 100 | > 100
O=[N+]([O-])c1ccc(S(=O)(=O)c2ccccc2)nc1 | inactive | 9 µM | 33.8 | 29.1 | 9.44 | 8.56 | 54.4 µM (inactive) | 8.84 | > 100
Cc1cc(C(=O)Nc2cccc(C(=O)O)c2)oc1C | 11.3 µM | 9.01 µM | 6.56 | 16 | 6.77 | 11.2 | > 100 µM (inactive) | > 100 | > 100
Cc1cc(C)c(C)c(S(=O)(=O)N2CCN(C(=O)c3cc(=O)[nH]c4ccccc34)CC2)c1C | inactive | 9.32 µM | 24.9 | 36.8 | 13.6 | 5.06 | 55.2 µM (inactive) | > 100 | 10.3
COc1ccc(C(NC(=O)C(C)C)c2ccc3cccnc3c2O)cc1 (centres undefined) | > 100 µM (inactive) | 4.7 µM | > 100 | > 100 | 3.71 | 5.68 | 23.3 µM | 12.3 | 34.3
CC(C)(C)c1ccc(Oc2ccc(N)cc2)cc1 | 1.44 µM | 4.49 µM | 0.457 | 2.43 | 4.88 | 4.1 | 74.7 µM (inactive) | 74.7 | > 100
CC(=O)OC1(C)CC(C)C(=O)C(C(O)CC2CC(=O)NC(=O)C2)C1 (centres undefined) | < 0.2 µM | 0.303 µM | < 0.2 | < 0.2 | 0.221 | 0.385 | < 0.2 µM | < 0.2 | < 0.2
CCC(=O)NC(c1ccc(C)cc1)c1ccc2cccnc2c1O (centres undefined) | inactive | inactive | 46.6 | > 100 | 1.31 | > 100 | > 100 µM (inactive) | > 100 | > 100
CC(C)CC1C(=O)N(Cc2cn(Cc3ccco3)nn2)CCS(=O)(=O)N1Cc1ccc(-c2ccc(F)cc2)cc1 (centres undefined) | inactive | 8.24 µM | > 100 | 47.1 | 10.4 | 6.09 | 67.5 µM (inactive) | > 100 | 34.9
O=C(c1ccco1)N1CCN(C(c2ccccc2Cl)c2nnnn2Cc2cccs2)CC1 (centres undefined) | inactive | inactive | 14.5 | 58.7 | 3.28 | > 100 | > 100 µM (inactive) | > 100 | > 100
O=C(CCn1cnc(-c2ccccc2)c1-c1ccccc1)N/N=C/c1ccccc1O | inactive | 5.13 µM | 49.7 | > 100 | 5.32 | 4.93 | 63.2 µM (inactive) | > 100 | 26.4
O=C(N/N=C/c1cc([N+](=O)[O-])ccc1O)c1ccc(COc2ccc3c(c2)CCC3)o1 | > 100 µM (inactive) | 9.2 µM | > 100 | > 100 | 7.48 | 10.9 | 76.8 µM (inactive) | > 100 | 53.7
COc1ccc(N(C(=O)CCl)C(C(=O)NC2CCCCC2)c2cccnc2)cc1 (centres undefined) | inactive | 8.05 µM | 40.4 | 39.6 | 6.62 | 9.49 | 2.68 µM | 2.81 | 2.56
COc1cc2nc(CN3CC=C(c4ccccc4)CC3)[nH]c(=O)c2cc1OC | inactive | 6.47 µM | 60.9 | 62.2 | 7.71 | 5.22 | > 100 µM (inactive) | > 100 | > 100

Continued, in another order:

IC50 [1] | IC50 (PEG-3 [2]) | Structure (SMILES) | IC50 (GAPDH; [4]) [µM] | IC50 (GAPDH; [5]) [µM] | IC50 (PEG-3 [3]; [4]) [µM] | IC50 (PEG-3 [3]; [5]) [µM] | IC50 (Rat fibroblasts (CREF); mean of runs) | IC50 (Rat fibroblasts (CREF); [4]) [µM] | IC50 (Rat fibroblasts (CREF); [5]) [µM]
20.9 µM | 1.49 µM | Cc1cc(C)c2sc(NNC(=O)c3ccc(S(=O)(=O)N4CCc5ccccc5C4)cc3)nc2c1 | 10.4 | 31.5 | 0.939 | 2.04 | > 100 µM (inactive) | > 100 | > 100
27.8 µM | 4.03 µM | CCc1ccc(/C=C2\SC(=S)N(CCCC(=O)Nc3ccccn3)C2=O)cc1 | 15.6 | 40.1 | 5.21 | 2.85 | 50.2 µM (inactive) | > 100 | 0.313
> 100 µM (inactive) | 0.922 µM | C/C(=N\NC(=O)c1c(C)nc2ccccn12)c1ccc(O)cc1O | > 100 | > 100 | 1.31 | 0.534 | 62.8 µM (inactive) | > 100 | 25.5
5.18 µM | 3.93 µM | Cc1oc(-c2ccc3c(c2)OCCO3)cc1C(=O)O | 4.06 | 6.29 | 3.12 | 4.73 | 34.2 µM | 31.2 | 37.3
14.1 µM | 2.67 µM | NS(=O)(=O)c1ccc(CCNc2nn3c(-c4ccc(F)c(Cl)c4)cnc3s2)cc1 | 12.9 | 15.3 | 2.86 | 2.47 | > 100 µM (inactive) | > 100 | > 100
12.8 µM | 1.9 µM | Cc1ccc(/C=C2\SC(=S)N(CCCC(=O)Nc3ccccn3)C2=O)cc1 | 17.7 | 7.78 | 1.33 | 2.48 | > 100 µM (inactive) | > 100 | > 100
inactive | 2.87 µM | CS(=O)(=O)Nc1cccc(NC(=O)C2Cc3c(-c4cccc(F)c4)ccnc3O2)c1 (centres undefined) | > 100 | 44.6 | 3.11 | 2.62 | > 100 µM (inactive) | > 100 | > 100
inactive | 0.512 µM | O=C(N/N=C\c1c(O)ccc2ccccc12)c1cncc(Br)c1 | 40.3 | 69.7 | 0.52 | 0.504 | 9.73 µM | 2.43 | 17
> 100 µM (inactive) | 2.05 µM | CCN(CC)S(=O)(=O)c1cccc(C(=O)N/N=C(\C)c2ccc(O)cc2O)c1 | > 100 | > 100 | 2.77 | 1.33 | 74.1 µM (inactive) | > 100 | 48.2
4.53 µM | 1.21 µM | CCc1ccc(/C=C2\SC(=S)N(CCCC(=O)NC3=NCCS3)C2=O)cc1 | 4.61 | 4.45 | 1.28 | 1.14 | > 100 µM (inactive) | > 100 | > 100
> 100 µM (inactive) | 3.26 µM | C/C(=N\NC(=O)c1cc(C2CC2)nc2ccccc12)c1ccc(O)cc1O | > 100 | > 100 | 3.07 | 3.45 | 60.7 µM (inactive) | 21.5 | > 100
inactive | 1.77 µM | CC(=O)NC(c1ccc(Cl)cc1Cl)c1ccc2cccnc2c1O (centres undefined) | 31.5 | 61.9 | 0.852 | 2.68 | > 100 µM (inactive) | > 100 | > 100
5.04 µM | 0.95 µM | Cc1ccc(/C=C2\SC(=S)N(CCCC(=O)NNC(=O)c3ccccc3O)C2=O)cc1 | 2.65 | 7.43 | 1.71 | < 0.2 | > 100 µM (inactive) | > 100 | > 100
2.86 µM | 0.703 µM | NC(C(=O)O)C1ON=C(Cl)C1O (centres undefined) | 0.927 | 4.8 | 0.639 | 0.767 | > 100 µM (inactive) | > 100 | > 100
2.02 µM | 1.56 µM | O=C(O)c1ccc(N/N=C/c2ccc3c(c2)OCO3)cc1 | 1.37 | 2.67 | 1.24 | 1.89 | 52.3 µM (inactive) | 57.5 | 47.1
28.7 µM | 2.53 µM | Cc1ccc(C)c(S(=O)(=O)N2CCN(c3ncnc4sccc34)CC2)c1 | 9.4 | 48 | 2.58 | 2.47 | 58.7 µM (inactive) | > 100 | 17.4
